From patent US8071735B2, “Cotton event MON 88913 and compositions and methods for detection thereof” (priority 2003, dated 2011)

How the values were obtained:
[1] = test system: Roundup Ready cotton event 1445; assay: Field trial, cotton lint yield after glyphosate treatment (10 locations); type: in vivo, Gossypium hirsutum
Excerpt: (§1) The field trials were arranged in a randomized split plot design with three replications and three treatments. The events were planted in two row, 30-foot plots. The treatments consisted of unsprayed, 64 oz/A (1.5 lb ae/A) Roundup Ultra® at the 4, 6, 10, 14-node stages, and 96 oz/A (2.25 lb ae/A) Roundup Ultra® at the 4, 6, 10, 14-node stages. A mid-season plant map was completed on ten plants per plot. Boll retention data was collected for the first and second fruiting positions of the first five fruiting nodes that provides a boll retention value scale of 0-10. A plant with a boll retention value equal to or greater than 3 on the 0-10 scale has value as a new glyphosate tolerant plant selection.
(§2) Yield is a measure of boll retention, cotton plants engineered for glyphosate tolerance that retain a substantial number of bolls in the first and second fruiting positions will maintain a yield advantage over cotton plants that are not as glyphosate tolerant. An effective dose of a glyphosate containing herbicide to control weeds in a field of MON 88913 comprises about 4 oz/A and may exceed 128 oz/A depending on the species of weed to be controlled and the stage of weed development. Glyphosate can be mixed with other herbicides to enhance the herbicidal activity against certain weed species.

[2] = test system: cotton event MON 88913; assay: as above; type: in vivo, Gossypium hirsutum
Excerpt: as §1, §2

[3] = glyphosate 1.5 lb ae/A (64 oz/A Roundup Ultra) at the 4, 6, 10, 14-node stages
[4] = glyphosate 2.25 lb ae/A (96 oz/A Roundup Ultra) at the 4, 6, 10, 14-node stages

O=C(O)CNCP(=O)(O)O [Glyphosate, N-phosphonomethylglycine]
Yield (lb/A) of 10 Locations, cotton lint [1, 3]: 1044.19 lb/A | Yield (lb/A) of 10 Locations, cotton lint [1, 4]: 831.47 lb/A | Yield (lb/A) of 10 Locations, cotton lint [2, 3]: 2587.61 lb/A | Yield (lb/A) of 10 Locations, cotton lint [2, 4]: 2412.3 lb/A
